{"source": "patent US8394950B2", "about": "“Analogues of coformycin and their use for treating protozoan parasite infections” (Industrial Research Limited, priority 2006, dated 2013)", "key": {"[1]": {"test_system": "P. falciparum", "settings": "cited from earlier work; for killing of P. falciparum in culture (in words): in culture / growing in human erythrocytes"}, "[2]": {"test_system": "Plasmodium knowlesi", "settings": "single dose, primates with Plasmodium knowlesi; cited from earlier work"}, "[3]": {"settings": "in vivo; cited from earlier work"}, "[4]": {"molecular_target": "T1, BtADA (Bos taurus, UniProt P56658)", "T1 construct": "bovine adenosine deaminase from bovine spleen; purchased Sigma-Aldrich Chemical Company; host or cells: bovine spleen", "T1 sequence (P56658 1-363)": "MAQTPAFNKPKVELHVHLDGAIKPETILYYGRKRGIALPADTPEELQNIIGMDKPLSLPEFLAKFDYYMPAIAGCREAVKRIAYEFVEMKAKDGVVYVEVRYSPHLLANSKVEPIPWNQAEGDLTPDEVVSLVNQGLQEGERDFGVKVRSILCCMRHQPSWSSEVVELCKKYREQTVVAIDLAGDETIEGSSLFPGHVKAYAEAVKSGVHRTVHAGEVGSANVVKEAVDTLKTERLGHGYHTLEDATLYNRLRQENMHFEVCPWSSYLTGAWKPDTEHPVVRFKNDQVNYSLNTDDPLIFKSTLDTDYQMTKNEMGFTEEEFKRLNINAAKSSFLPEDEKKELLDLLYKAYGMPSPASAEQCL", "assay": "Inhibition of bovine adenosine deaminase (adenosine to inosine, absorbance change)", "assay_type": "biochemical", "experimental": "(§1) Inhibition studies measured both initial and slow-onset rates to establish both the initial dissociation constant (Ki) and the steady-state dissociation constant (Ki*) as previously described [Kicska, G. A., Tyler, P. C., Evans, G. B., Furneaux, R. H., Kim, K., and Schramm, V. L. (2002) J Biol Chem 277, 3219-3225.]. Kd is the lower of these values.\n(§2) Concentrations of inhibitors were determined spectrophotometrically using the extinction coefficient of 8250 M^−1cm^−1 at 282 nm.\n(§3) (V. L. Schramm, D. C. Baker, Biochemistry, 1985, 24, 641-646). Inhibitor concentrations ranging from 10 μM to 2 nM were used for determination of the inhibition constants and an enzyme concentration of 1 nM. The Ki values were determined by fitting the initial rate and inhibitor concentrations to the following expression of competitive inhibition: (V′o/Vo)=(KM+[S])/(KM+[S]+(KM[I]/Ki)) where V′o is the initial rate in the presence of inhibitor, and Vo is the initial rate in the absence of inhibitor, [I] is the inhibitor concentration, and [S] is the substrate concentration."}, "[5]": {"molecular_target": "T2, PfADA (Plasmodium falciparum, UniProt Q8IJA9)", "T2 sequence (Q8IJA9 1-367)": "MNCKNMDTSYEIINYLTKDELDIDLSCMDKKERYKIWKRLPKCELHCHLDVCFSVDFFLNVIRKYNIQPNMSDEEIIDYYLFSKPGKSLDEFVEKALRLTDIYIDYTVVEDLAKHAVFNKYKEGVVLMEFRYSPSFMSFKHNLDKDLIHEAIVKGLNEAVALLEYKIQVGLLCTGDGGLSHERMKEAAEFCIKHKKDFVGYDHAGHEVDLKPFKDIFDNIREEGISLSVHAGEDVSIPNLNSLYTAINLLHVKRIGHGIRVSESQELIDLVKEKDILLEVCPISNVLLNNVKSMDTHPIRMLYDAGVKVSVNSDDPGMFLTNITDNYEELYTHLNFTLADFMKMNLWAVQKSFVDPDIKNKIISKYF", "assay": "biochemical", "assay_type": "biochemical", "experimental": "as §1, §2, §3"}, "[6]": {"molecular_target": "T3, HsADA (Homo sapiens, UniProt P00813)", "T3 construct": "Human adenosine deaminase from human erythrocytes; purchased Sigma-Aldrich Chemical Company; host or cells: human erythrocytes", "T3 sequence (P00813 1-363)": "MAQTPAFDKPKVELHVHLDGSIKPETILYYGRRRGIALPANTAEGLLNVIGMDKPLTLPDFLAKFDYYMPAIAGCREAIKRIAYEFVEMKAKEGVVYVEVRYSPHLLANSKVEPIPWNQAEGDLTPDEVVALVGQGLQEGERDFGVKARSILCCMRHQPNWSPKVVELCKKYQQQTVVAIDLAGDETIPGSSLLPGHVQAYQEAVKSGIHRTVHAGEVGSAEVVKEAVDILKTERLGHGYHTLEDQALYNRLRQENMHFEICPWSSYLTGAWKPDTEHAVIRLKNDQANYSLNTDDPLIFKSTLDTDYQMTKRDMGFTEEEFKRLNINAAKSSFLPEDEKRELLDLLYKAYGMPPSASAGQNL", "assay": "Inhibition of human adenosine deaminase (adenosine to inosine, absorbance change)", "assay_type": "biochemical", "experimental": "as §1, §2, §3"}, "[7]": {"test_system": "P. falciparum", "assay": "Visual inspection of parasitemia in infected red blood cells after 48 hours", "assay_type": "cell-based", "settings": "for parasitemia after 48 hours: 1% parasitemia initially"}, "[8]": {"test_system": "P. falciparum strain 3D7", "assay": "P. falciparum culture kill curves, uptake of tritiated ethanolamine in red blood cells", "assay_type": "cell-based", "settings": "for IC50: read-out: IC50, prevention of growth of P. falciparum (uptake of tritiated ethanolamine)", "experimental": "Human erythrocytes were collected from local volunteers under protocol CCI 00-31 or CCI 99-240 of the Albert Einstein College of Medicine. Cultures of P. falciparum strain 3D7 were grown in RPMI supplemented with 0.5% Albumax II (Invitrogen) and were sorbitol-synchronized twice before initiation of the 72 hour assay in 96-well plates with a total volume of 200 μL at 1% hematocrit and 0.8% parasitemia (100% rings). […] Drugs were dissolved in water and diluted with media prior to addition to cultures. […] After 54 h, cell cultures were frozen and thawed to disrupt cells, and the mixtures were harvested on glass fiber filters. Filters were counted in a Winspectral 1414 scintillation counter. Experiments were done twice with six replicate wells for each experiment. Individual data points more than two standard deviations from the mean were discarded. For some experiments, parasitemias were counted on Giemsa-stained smears of cultures treated in parallel."}, "[9]": {"settings": "initial dissociation constant, 100 μM adenosine, pH 7.0, 30° C., read-out: PfADA Ki"}, "[10]": {"settings": "no detectible slow onset, read-out: dissociation constants (PfADA)"}, "[11]": {"settings": "methylthioadenosine (100 μM) alone"}, "[12]": {"settings": "methylthioadenosine (100 μM) plus compound (10 μM)"}}, "note": "Where two headings read alike, the source gives them in different places."}
{"molecule": "O=c1[nH]cnc2c([C@@H]3N[C@H](CO)[C@@H](O)[C@H]3O)c[nH]c12", "note": "[Immucillin-H]", "values": [{"measurement": "time to purine-less death", "setting": "[1]; P. falciparum-infected erythrocytes, simultaneous inhibition of host and parasite PNP", "result": "≤ 24", "unit": "h"}]}
{"molecule": "OC[C@H]1O[C@@H](n2cnc3c2NC=NC[C@H]3O)C[C@@H]1O", "note": "[2′-deoxycoformycin]", "values": [{"measurement": "effect on parasitemia (in words)", "setting": "[2]", "result": "dramatically reduced parasitemia"}, {"measurement": "toxicity in mammals (in words)", "setting": "[3]", "result": "highly toxic"}]}
{"molecule": "O[C@@H]1CNC=Nc2c1ncn2[C@H]1C[C@H](O)[C@@H](CSc2ccccc2)O1", "note": "[5′-PhS-2′-deoxycoformycin (18), (8R)-3-(2′-deoxy-5′-phenylthio-β,D-erythro-pentofuranosyl)-8-hydroxy-3,6,7,8-tetrahydroimidazo[4,5-d][1,3]diazepine]", "values": [{"measurement": "Ki", "setting": "[4]; read-out: BtADA Ki", "result": "> 10000", "unit": "nM"}, {"measurement": "inhibition of PfADA (in words)", "setting": "[5]", "result": "no detectible slow onset"}, {"measurement": "Ki", "setting": "[5]; [9]", "result": "61 ± 11", "unit": "nM"}, {"measurement": "Ki", "setting": "[5]; [10]", "result": 61, "unit": "nM"}]}
{"molecule": "CCCSC[C@H]1O[C@@H](n2cnc3c2N=CNC[C@H]3O)C[C@@H]1O", "note": "[5′-PrS-2′-deoxycoformycin (17), (8R)-3-(2′-deoxy-5′-propylthio-β,D-erythro-pentofuranosyl)-8-hydroxy-3,6,7,8-tetrahydroimidazo[4,5-d][1,3]diazepine]", "values": [{"measurement": "Ki", "setting": "[4]; read-out: BtADA Ki", "result": "> 10000", "unit": "nM"}, {"measurement": "Ki", "setting": "[6]; read-out: HsADA Ki", "result": "> 10000", "unit": "nM"}, {"measurement": "inhibition of PfADA (in words)", "setting": "[5]", "result": "no detectible slow onset"}, {"measurement": "Ki", "setting": "[5]; [9]", "result": "12 ± 1", "unit": "nM"}, {"measurement": "Ki", "setting": "[5]; [10]", "result": 12, "unit": "nM"}]}
{"molecule": "CSC[C@H]1N[C@@H](c2c[nH]c3c(=O)[nH]cnc23)[C@H](O)[C@@H]1O", "note": "[5′-Methylthio-Immucillin-H]", "values": [{"measurement": "killing of P. falciparum in culture (in words)", "setting": "[1]", "result": "able to kill P. falciparum growing in human erythrocytes"}, {"measurement": "killing of P. falciparum in culture (in words)", "setting": "[1]; listed as 5′-methylthio-Immucillin-H", "result": "kill P. falciparum in culture"}]}
{"molecule": "5′-methylthioadenosine", "values": [{"measurement": "parasitemia after 48 hours", "setting": "[7]; [11]", "result": 8, "unit": "%"}, {"measurement": "parasites in the ring form after 48 hours", "setting": "[7]; [11]", "result": 97, "unit": "%"}]}
{"molecule": "(8R)-8-hydroxy-3-(5-methylthio-β-D-ribofuranosyl)-3,6,7,8-tetrahydroimidazo[4,5-d][1,3]diazepine [5′-MeS-Coformycin (8)]", "values": [{"measurement": "killing of P. falciparum growing in human erythrocytes (in words)", "setting": "[8]", "result": "kills P. falciparum growing in human erythrocytes"}, {"measurement": "IC50", "setting": "[8]; strain 3D7 in red blood cells, 72 hour assay, no hypoxanthine supplementation", "result": 62, "unit": "nM"}, {"measurement": "parasitemia after 48 hours", "setting": "[7]; [12]", "result": 1, "unit": "%"}, {"measurement": "parasites in the trophozoite form after 48 hours", "setting": "[7]; [12]", "result": 100, "unit": "%"}]}
{"molecule": "CSC[C@H]1O[C@@H](n2cnc3c2N=CNC[C@H]3O)C[C@@H]1O", "note": "[5′-MeS-2′-deoxycoformycin (16), (8R)-3-(2′-deoxy-5′-methylthio-β,D-erythro-pentofuranosyl)-8-hydroxy-3,6,7,8-tetrahydroimidazo[4,5-d][1,3]diazepine]", "values": [{"measurement": "Ki", "setting": "[4]; read-out: BtADA Ki", "result": "> 10000", "unit": "nM"}, {"measurement": "Ki", "setting": "[6]; read-out: HsADA Ki", "result": "> 10000", "unit": "nM"}, {"measurement": "Ki", "setting": "[5]; [9]", "result": "2.3 ± 0.8", "unit": "nM"}, {"measurement": "Ki", "setting": "[5]; slow onset equilibrium dissociation constant, read-out: PfADA Ki^a", "result": "0.73 ± 0.22", "unit": "nM"}]}
{"molecule": "OC[C@H]1O[C@@H](n2cnc3c2N=CNC[C@H]3O)[C@H](O)[C@@H]1O", "note": "[Coformycin]", "values": [{"measurement": "Ki", "setting": "[4]; BtADA Ki (nM), initial dissociation constant, 100 μM adenosine, pH 7.0, 30° C., >10,000 = no inhibition at 10 μM", "result": "1.1 ± 0.4", "unit": "nM"}, {"measurement": "Ki", "setting": "[4]; BtADA Ki^a (nM), slow onset equilibrium dissociation constant", "result": "0.06 ± 0.01", "unit": "nM"}, {"measurement": "inhibition of bovine ADA (in words)", "setting": "[4]; mammalian ADAs", "result": "inhibiting mammalian ADAs with equivalent potency"}, {"measurement": "Ki", "setting": "[6]; HsADA Ki (nM), initial dissociation constant, 100 μM adenosine, pH 7.0, 30° C., >10,000 = no inhibition at 10 μM", "result": "13.9 ± 3.4", "unit": "nM"}, {"measurement": "Ki", "setting": "[6]; HsADA Ki^a (nM), slow onset equilibrium dissociation constant", "result": "0.11 ± 0.02", "unit": "nM"}, {"measurement": "inhibition of human ADA (in words)", "setting": "[6]; mammalian ADAs", "result": "inhibiting mammalian ADAs with equivalent potency"}, {"measurement": "IC50", "setting": "[8]; Plasmodium falciparum, 3D7, Erythrocyte, 72 h", "result": 3.5, "unit": "nM"}, {"measurement": "parasitemia after 48 hours", "setting": "[7]; [12]", "result": 1, "unit": "%"}, {"measurement": "parasites in the trophozoite form after 48 hours", "setting": "[7]; [12]", "result": 100, "unit": "%"}, {"measurement": "potency relative to 5′-methylthiocoformycin (times more potent)", "setting": "[5]; PfADA", "result": "about 5 times"}, {"measurement": "Ki", "setting": "[5]; PfADA Ki (nM), initial dissociation constant, 100 μM adenosine, pH 7.0, 30° C.", "result": "0.68 ± 0.07", "unit": "nM"}, {"measurement": "Ki", "setting": "[5]; PfADA Ki^a (nM), slow onset equilibrium dissociation constant", "result": "0.08 ± 0.02", "unit": "nM"}, {"measurement": "Ki", "setting": "[5]; tightest dissociation constants, slow onset inhibition, range over all three enzymes (BtADA, HsADA, PfADA)", "result": "0.027 to 0.11", "unit": "nM"}]}
